Data from patent US20230092890A1, “1, 3, 4-Oxadiazole derivative compounds as histone deacetylase 6 inhibitor, and the pharmaceutical composition comprising the same” (Chong Kun Dang Pharmaceutical Corp., priority 2019, published 2023).
pIC50: −log10 of the molar value.

How the values were obtained:
HDAC1 = molecular target: T1, HDAC1 (Homo sapiens, UniProt Q13547); test: HDAC enzyme activity inhibition (in vitro), HDAC1 Fluorimetric Drug Discovery Assay Kit; format: biochemical; settings: samples at 100, 1000 and 10000 nM; 37° C. 60 minutes; fluorescence Ex 390, Em 460; read-out: HDAC1 IC50
T1 construct: purchased Enzolifesciences BML-AK511
How it was run: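 Compound incubated with enzyme 60 min at 37° C, then developer 30 min at 37° C; fluorescence read at Ex 390/Em 460. HDAC1 via fluorimetric kit, compounds at 100, 1000 and 10000 nM; HDAC6 human recombinant, compounds at 0.1, 1, 10, 100 and 1000 nM.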

HDAC6 human recombinant = molecular target: T2, HDAC6 human recombinant (Homo sapiens, UniProt Q9UBN7); test: HDAC enzyme activity inhibition (in vitro), HDAC6 assay; format: biochemical; settings: samples at 0.1, 1, 10, 100 and 1000 nM; 37° C. 60 minutes; fluorescence Ex 390, Em 460; read-out: HDAC6 IC50
T2 construct: purchased Calbiochem 382180
T2 sequence (Q9UBN7 1-1215): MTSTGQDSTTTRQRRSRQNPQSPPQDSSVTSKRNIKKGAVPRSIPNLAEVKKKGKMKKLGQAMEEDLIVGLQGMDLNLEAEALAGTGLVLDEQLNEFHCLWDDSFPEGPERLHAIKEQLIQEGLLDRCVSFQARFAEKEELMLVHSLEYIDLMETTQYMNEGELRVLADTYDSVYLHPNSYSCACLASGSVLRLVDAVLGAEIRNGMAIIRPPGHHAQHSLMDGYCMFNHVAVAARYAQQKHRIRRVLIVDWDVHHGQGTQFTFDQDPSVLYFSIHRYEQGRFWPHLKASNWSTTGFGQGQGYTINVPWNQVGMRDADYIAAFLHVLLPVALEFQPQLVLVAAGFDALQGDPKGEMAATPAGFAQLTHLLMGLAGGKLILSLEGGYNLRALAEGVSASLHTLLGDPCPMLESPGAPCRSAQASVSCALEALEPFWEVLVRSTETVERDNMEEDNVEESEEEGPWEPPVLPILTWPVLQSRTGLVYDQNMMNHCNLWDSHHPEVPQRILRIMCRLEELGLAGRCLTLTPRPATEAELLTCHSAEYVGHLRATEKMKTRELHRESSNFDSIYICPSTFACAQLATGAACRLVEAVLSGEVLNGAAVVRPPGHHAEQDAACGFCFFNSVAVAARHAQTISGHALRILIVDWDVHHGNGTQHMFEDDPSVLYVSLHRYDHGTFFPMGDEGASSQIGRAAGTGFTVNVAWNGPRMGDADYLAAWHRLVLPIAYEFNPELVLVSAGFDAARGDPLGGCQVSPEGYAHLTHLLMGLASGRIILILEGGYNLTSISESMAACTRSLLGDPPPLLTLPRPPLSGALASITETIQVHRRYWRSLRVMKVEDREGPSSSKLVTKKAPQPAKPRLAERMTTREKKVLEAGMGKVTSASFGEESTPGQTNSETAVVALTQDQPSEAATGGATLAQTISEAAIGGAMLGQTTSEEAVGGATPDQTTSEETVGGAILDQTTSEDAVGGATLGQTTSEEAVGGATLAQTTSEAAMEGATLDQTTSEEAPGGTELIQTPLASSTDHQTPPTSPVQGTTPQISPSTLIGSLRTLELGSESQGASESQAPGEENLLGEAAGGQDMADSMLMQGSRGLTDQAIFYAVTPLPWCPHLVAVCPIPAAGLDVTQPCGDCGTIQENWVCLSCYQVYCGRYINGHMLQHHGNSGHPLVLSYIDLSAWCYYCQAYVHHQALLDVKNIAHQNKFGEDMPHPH
How it was run: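 HDAC6 human recombinant enzyme with fluorimetric substrate; […]. Reaction 60 min at 37° C, then developer 30 min at 37° C; fluorescence read at Ex 390/Em 460.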

T1 sequence (Q13547 whole entry): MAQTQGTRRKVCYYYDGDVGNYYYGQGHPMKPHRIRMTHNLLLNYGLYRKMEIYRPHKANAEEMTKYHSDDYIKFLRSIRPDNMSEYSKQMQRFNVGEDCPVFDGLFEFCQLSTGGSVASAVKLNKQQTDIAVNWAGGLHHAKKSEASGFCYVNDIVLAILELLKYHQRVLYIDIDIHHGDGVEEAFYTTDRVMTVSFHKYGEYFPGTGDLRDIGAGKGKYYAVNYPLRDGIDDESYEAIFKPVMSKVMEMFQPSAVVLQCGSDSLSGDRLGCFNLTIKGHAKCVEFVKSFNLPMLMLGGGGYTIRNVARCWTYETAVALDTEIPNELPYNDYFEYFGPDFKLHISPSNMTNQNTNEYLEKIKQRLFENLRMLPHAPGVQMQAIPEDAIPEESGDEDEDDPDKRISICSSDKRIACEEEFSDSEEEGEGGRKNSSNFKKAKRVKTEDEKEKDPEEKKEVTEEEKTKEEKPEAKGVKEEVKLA

| Structure (SMILES) | pIC50 (HDAC1) | pIC50 (HDAC6 human recombinant) |
| --- | --- | --- |
| CS(=O)(=O)N1CCC(n2c(=O)n(Cc3ccc(-c4nnc(C(F)F)o4)cn3)c3ccc(Cl)cc32)CC1 [Compound 200, 5-chloro-1-((5-(5-(difluoromethyl)-1,3,4-oxadiazole-2-yl)pyridine-2-yl)methyl)-3-(1-(methylsulfonyl)piperidine-4-yl)-1,3-dihydro-2H-benzo[d]imidazole-2-one] | < 5.00 | 7.40 |
| CN1CCC(n2c(=O)n(Cc3ccc(-c4nnc(C(F)F)o4)cn3)c3ccc(-c4ccncc4)cc32)CC1 [Compound 135, 1-((5-(5-(difluoromethyl)-1,3,4-oxadiazole-2-yl)pyridine-2-yl)methyl)-3-(1-methylpiperidine-4-yl)-5-(pyridine-4-yl)-1,3-dihydro-2H-benzo[d]imidazole-2-one] | < 5.00 | 7.72 |
| CS(=O)(=O)N1CCC(n2c(=O)n(Cc3ccc(-c4nnc(C(F)F)o4)cc3F)c3ccc(Cl)cc32)CC1 [Compound 201, 5-chloro-1-(4-(5-(difluoromethyl)-1,3,4-oxadiazole-2-yl)-2-fluorobenzyl)-3-(1-(methylsulfonyl)piperidine-4-yl)-1,3-dihydro-2H-benzo[d]imidazole-2-one] | < 5.00 | 7.15 |
| O=c1n(Cc2ccc(-c3nnc(C(F)F)o3)cn2)c2ccccc2n1C1COC1 [Compound 11, 1-((5-(5-(difluoromethyl)-1,3,4-oxadiazole-2-yl)pyridine-2-yl)methyl)-3-(oxetan-3-yl)-1,3-dihydro-2H-benzo[d]imidazole-2-one] | < 5.00 | 6.62 |
| O=c1n(Cc2ccc(-c3nnc(C(F)F)o3)cn2)c2ncccc2n1C1CCN(C2COC2)CC1 [Compound 108] | < 5.00 | 6.83 |
| O=c1n(Cc2ccc(-c3nnc(C(F)F)o3)cn2)c2ccc(F)cc2n1C1CCN(C2CCCCC2)CC1 [Compound 47, 3-(1-cyclohexylpiperidine-4-yl)-1-((5-(5-(difluoromethyl)-1,3,4-oxadiazole-2-yl)pyridine-2-yl)methyl)-5-fluoro-1,3-dihydro-2H-benzo[d]imidazole-2-one] | < 5.00 | 6.90 |
| CC(=O)N1CCC(n2c(=O)n(Cc3ccc(-c4nnc(C(F)F)o4)cc3)c3ccc(Cl)cc32)CC1 [Compound 183, 3-(1-acetylpiperidine-4-yl)-5-chloro-1-(4-(5-(difluoromethyl)-1,3,4-oxadiazole-2-yl)benzyl)-1,3-dihydro-2H-benzo[d]imidazole-2-one] | < 5.00 | 7.14 |
| CC(C)N1CCC(n2c(=O)n(Cc3ccc(-c4nnc(C(F)F)o4)cc3F)c3ccccc32)CC1 [Compound 15, 1-(4-(5-(difluoromethyl)-1,3,4-oxadiazole-2-yl)-2-fluorobenzyl)-3-(1-isopropylpiperidine-4-yl)-1,3-dihydro-2H-benzo[d]imidazole-2-one] | < 5.00 | 6.71 |
| CC(=O)N1CCC(n2c(=O)n(Cc3ccc(-c4nnc(C(F)F)o4)cc3)c3cc(F)c(F)cc32)CC1 [Compound 175, 1-(1-acetylpiperidine-4-yl)-3-(4-(5-(difluoromethyl)-1,3,4-oxadiazole-2-yl)benzyl)-5,6-difluoro-1,3-dihydro-2H-benzo[d]imidazole-2-one] | < 5.00 | 7.30 |
| Cc1noc(C)c1-c1cc2c(cc1F)n(Cc1ccc(-c3nnc(C(F)F)o3)cn1)c(=O)n2C [Compound 178, 1-((5-(5-(difluoromethyl)-1,3,4-oxadiazole-2-yl)pyridine-2-yl)methyl)-5-(3,5-dimethylisoxazole-4-yl)-6-fluoro-3-methyl-1,3-dihydro-2H-benzo[d]imidazole-2-one] | < 5.00 | 7.70 |
| O=c1n(Cc2ccc(-c3nnc(C(F)F)o3)cn2)c2ccc(-c3cccnc3)cc2n1C1CCN(C2COC2)CC1 [Compound 280, 1-((5-(5-(difluoromethyl)-1,3,4-oxadiazole-2-yl)pyridine-2-yl)methyl)-3-(1-(oxetan-3-yl)piperidine-4-yl)-5-(pyridine-3-yl)-1,3-dihydro-2H-benzo[d]imidazole-2-one] | < 5.00 | 7.74 |
| CN1CCC(n2c(=O)n(Cc3ccc(-c4nnc(C(F)F)o4)cc3F)c3ccc(-c4ccccc4F)cc32)CC1 [Compound 160, 1-(4-(5-(difluoromethyl)-1,3,4-oxadiazole-2-yl)-2-fluorobenzyl)-5-(2-fluorophenyl)-3-(1-methylpiperidine-4-yl)-1,3-dihydro-2H-benzo[d]imidazole-2-one] | < 5.00 | 7.04 |
| CC(=O)N1CCC(n2c(=O)n(Cc3ccc(-c4nnc(C(F)F)o4)cc3F)c3cc(F)ccc32)CC1 [Compound 75] | < 5.00 | 7.34 |
| Cc1ccc(-c2ccc3c(c2)n(C2CCN(C)CC2)c(=O)n3Cc2ccc(-c3nnc(C(F)F)o3)cc2F)o1 [Compound 163, 1-(4-(5-(difluoromethyl)-1,3,4-oxadiazole-2-yl)-2-fluorobenzyl)-5-(5-methylfuran-2-yl)-3-(1-methylpiperidine-4-yl)-1,3-dihydro-2H-benzo[d]imidazole-2-one] | < 5.00 | 7.04 |
| CCN1CCC(n2c(=O)n(Cc3ccc(-c4nnc(C(F)F)o4)cn3)c3ccc(-c4ccncc4)cc32)CC1 [Compound 283, 1-((5-(5-(difluoromethyl)-1,3,4-oxadiazole-2-yl)pyridine-2-yl)methyl)-3-(1-ethylpiperidine-4-yl)-5-(pyridine-4-yl)-1,3-dihydro-2H-benzo[d]imidazole-2-one] | < 5.00 | 7.64 |
| Cn1c(=O)n(Cc2ccc(-c3nnc(C(F)F)o3)cc2F)c2cc(F)c(-c3ccc(CN4CCOCC4)nc3)cc21 [Compound 340, 1-(4-(5-(difluoromethyl)-1,3,4-oxadiazole-2-yl)-2-fluorobenzyl)-6-fluoro-3-methyl-5-(6-(morpholinomethyl)pyridine-3-yl)-1,3-dihydro-2H-benzo[d]imidazole-2-one] | < 5.00 | 7.19 |
| CN1CCC[C@@H](n2c(=O)n(Cc3ccc(-c4nnc(C(F)F)o4)cn3)c3cc(F)c(-c4cccnc4)cc32)C1 [Compound 274, (R)-1-((5-(5-(difluoromethyl)-1,3,4-oxadiazole-2-yl)pyridine-2-yl)methyl)-6-fluoro-3-(1-methylpiperidine-3-yl)-5-(pyridine-3-yl)-1,3-dihydro-2H-benzo[d]imidazole-2-one] | < 5.00 | 7.92 |
| CN1CC(n2c(=O)n(Cc3ccc(-c4nnc(C(F)F)o4)cc3F)c3ccccc32)C1 [Compound 22, 1-(4-(5-(difluoromethyl)-1,3,4-oxadiazole-2-yl)-2-fluorobenzyl)-3-(1-methylazetidine-3-yl)-1,3-dihydro-2H-benzo[d]imidazole-2-one] | < 5.00 | 6.96 |
| O=c1n(Cc2ccc(-c3nnc(C(F)F)o3)cc2)c2ccccc2n1C1CC2(COC2)C1 [Compound 29, 1-(4-(5-(difluoromethyl)-1,3,4-oxadiazole-2-yl)benzyl)-3-(2-oxaspiro[3.3]heptane-6-yl)-1,3-dihydro-2H-benzo[d]imidazole-2-one] | < 5.00 | 6.68 |
| Cn1c(=O)n(Cc2ccc(-c3nnc(C(F)F)o3)cn2)c2cc(F)c(N3CCN(Cc4cccnc4)CC3)cc21 [Compound 303, 1-((5-(5-(difluoromethyl)-1,3,4-oxadiazole-2-yl)pyridine-2-yl)methyl)-6-fluoro-3-methy 1-5-(4-(pyridine-3-ylmethyl)piperazine-1-yl)-1,3-dihydro-2H-benzo[d]imidazole-2-one] | < 5.00 | 7.54 |
